Reference: patent US5419898A, “Antiallergic composition for ophthalmic or nasal use” (priority 1992, dated 1995)
Counter-ions that a name gives are not always drawn.

Tested on: histamine-induced conjunctivitis
Experiment: Effect on rat histamine-induced conjunctivitis
Format: in vivo, Male Wistar rats
Details: 0.5 w/v % cetirizine hydrochloride; 3 μl per eye 40 and 20 minutes before histamine
Procedure: Male Wistar rats of about 100 g in weight were injected subconjunctivally each with 50 μl of 0.1 w/v % histamine at the upper eyelid. Each of the following test ophthalmic compositions in solution form was instilled into both eyes of the rats in the corresponding group at a dose of 3 μl for each eye 40 and 20 minutes before the histamine injection. The rats were sacrificed one hour after the histamine injection. The palpebral conjunctival edema weight was measured, and the edema inhibition rate was calculated using the edema weight of the physiological saline group as the maximal response.

For O=C(O)COCCN1CCN(C(c2ccccc2)c2ccc(Cl)cc2)CC1 (stereo not shown) [cetirizine hydrochloride], the edema inhibition rate was “about 88.8%”.
